# In publication PMC12375981 (Protein Science : A Publication of the Protein Society, 2025):
# How the values were obtained:
# A191E 3CL^pro = A191E 3CL^pro (Severe acute respiratory syndrome coronavirus 2, UniProt P0DTD1, A3454E); type: biochemical, SARS‐CoV‐2
# S1D 3CL^pro [1] = molecular target: T1, S1D 3CL^pro (Severe acute respiratory syndrome coronavirus 2, UniProt P0DTD1, S3264D); type: biochemical, SARS‐CoV‐2
# [2] = molecular target: S1D + A191E 3CL^pro (double mutant, DM) (Severe acute respiratory syndrome coronavirus 2, UniProt P0DTD1, A3454E/S3264D); type: biochemical, SARS‐CoV‐2
# S1D 3CL^pro [3] = molecular target: T1, S1D 3CL^pro; type: binding, SARS‐CoV‐2
# DM (S1D + A191E) 3CL^pro = DM (S1D + A191E) 3CL^pro (Severe acute respiratory syndrome coronavirus 2, UniProt P0DTD1, A3454E/S3264D); type: binding, SARS‐CoV‐2
# E166V 3CL^pro = details: cited from earlier work
# [4] = test system: E166V mutation of 3CL^pro; details: cited from earlier work
Structure (SMILES),reduction in affinity (K i) compared to the WT (A191E 3CL^pro),K D (S1D 3CL^pro [1]),K D f c (S1D 3CL^pro [1]),K D/f c (S1D 3CL^pro [1]),f c (S1D 3CL^pro [1]),inhibitor concentration at which the mutant is more active than the WT (S1D 3CL^pro [1]),inhibitor concentration for full inhibition (S1D 3CL^pro [1]),reduction in affinity (K i) compared to the WT (S1D 3CL^pro [1]),K D [2],K D f c [2],K D/f c [2],f c [2],inhibitor concentration at which the mutant is more active than the WT [2],reduction in affinity for the dimer (K i) compared to the WT [2],effect of inhibitor on monomer/dimer peaks (S1D 3CL^pro [3]),effect of inhibitor on monomer/dimer peaks (DM (S1D + A191E) 3CL^pro),increase in K i (E166V 3CL^pro),increase in EC50 [4]
COc1cccc2[nH]c(C(=O)N[C@@H](CC(C)C)C(=O)N[C@@H](C[C@@H]3CCNC3=O)C(=O)COP(=O)(O)O)cc12 [lufotrelvir],6.4 fold,290 ± 30 nM,6000 ± 700 nM,13 ± 2 nM,21 ± 1,greater than 10 nM,exceeded 1 μM,3.3 fold,140 ± 10 nM,2300 ± 300 nM,9 ± 1 nM,16 ± 1,≥ 10 nM,26 fold,eliminated the monomeric peaks,eliminated the monomeric peaks,–,–
CC(C)(C)[C@H](NC(=O)C(F)(F)F)C(=O)N1C[C@H]2[C@@H]([C@H]1C(=O)N[C@H](C#N)C[C@@H]1CCNC1=O)C2(C)C [nirmatrelvir],–,–,–,–,–,–,–,–,–,–,–,–,–,–,–,–,more than 7000 fold,up to 255 fold
